Consider 37 molecules from patent publication US9006442B2, “Cannabinoid receptor modulators” (Lupin Limited, priority 2011, dated 2015).

This test deals with hCB2 (Homo sapiens, UniProt P34972). The experiment in a line: cAMP determination in functional hCB2-CHO stable cells (HTRF). In kind it is cell-based. As for the experimental part: In-Vitro Assay Method for Determination of cAMP in Functional hCB2—CHO Stable Cells:
Recombinant CHO-hCB2 cells (procured from Perkin Elmer Inc. USA) were propagated and maintained in Ham's F-12 complete medium containing 10% heat inactivated FBS (Sigma.UK) and 1× penstrep. For assay, 0.1×10^6 to 1.0×10^6 CHO-hCB2 cells were seeded in T-25 flask and grown to mid-log phase in culture media without antibiotics for 2-3 days. […] The test is performed in 96^1/2 area black well plates. For agonist testing, 20 μl cells/well were mixed with 20 μl of sample and 10 μl of forskolin (with final concentration of 10 μM) and incubated for 20 to 40 min at room temperature in incubator. The plate was then processed for the cAMP determination using cAMP Femto-2 HTRF kit (Cisbio, Germany) as per the manual.
The concentration of compound required to stimulate a half-maximal response (EC50) was determined using the GraphPad Prism software (version 5).
A general note: TR-FRET usually uses a lanthanide donor and a delayed reading to cut background.

[1] abbreviates: CHO-hCB2 cells, cAMP, forskolin 10 μM, agonist testing, read-out: EC50 Range.

Like-named read-outs stand apart in the source and are kept apart here. Where only a bound is given, the exact number is not on record here.

Chain of hCB2 (P34972 whole entry): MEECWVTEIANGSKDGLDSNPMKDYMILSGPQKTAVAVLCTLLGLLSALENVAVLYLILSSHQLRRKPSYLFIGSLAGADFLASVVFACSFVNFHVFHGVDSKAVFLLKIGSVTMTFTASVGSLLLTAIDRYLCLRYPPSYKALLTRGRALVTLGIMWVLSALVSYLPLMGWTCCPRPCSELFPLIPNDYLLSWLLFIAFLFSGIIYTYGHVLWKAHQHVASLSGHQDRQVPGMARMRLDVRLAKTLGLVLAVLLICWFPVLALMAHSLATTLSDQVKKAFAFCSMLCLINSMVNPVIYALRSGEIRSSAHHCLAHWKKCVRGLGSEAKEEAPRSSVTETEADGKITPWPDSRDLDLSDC

The term EC50 denotes the concentration at which the effect is half-maximal. Consider `CCN(C)C(=O)c1cnc(Nc2cccc(F)c2C(F)(F)F)c2cccc(Cl)c12` [compound 335, 5-Chloro-N-ethyl-1-((3-fluoro-2-(trifluoromethyl)phenyl)amino)-N-methylisoquinolin-4-carboxamide], for which the EC50 under setting [1] is < 10 nM.
As to `O=C(c1cnc(Nc2cccc(Cl)c2)c2cccc(C3CC3)c12)N1CCOCC1` [Example-114, (1-((3-Chlorophenyl)amino)-5-cyclopropylisoquinolin-4-yl)(morpholino)methanone], the EC50 was < 10 nM.
Take `CCN(C)C(=O)c1ccc(Nc2cccc(C(F)(F)F)c2C)c2cccc(C)c12` [compound 452, N-Ethyl-N,8-dimethyl-4-((2-methyl-3-(trifluoromethyl)phenyl)amino)-1-naphthamide]: the concentration giving a half-maximal response (EC50) under setting [1] was < 10 nM.
Turning to `CCc1cccc2c(Nc3cccc(C(F)(F)F)c3F)ncc(C(=O)N3CCCCC3)c12` [Example-129, (5-Ethyl-1-((2-Fluoro-3-(trifluoromethyl)phenyl)amino)isoquinolin-4-yl)(piperidin-1-yl)methanone], under setting [1], the EC50 is < 10 nM.
Consider `O=C(c1ccc(Nc2cc(F)cc(F)c2)c2ccccc12)N1CCOCC1` [Example-187, (4-((3,5-Difluorophenyl)amino)naphthalen-1-yl)(morpholino)methanone], for which the EC50 under setting [1] fell in the range of 10 to 1000 nM.
For `Cc1cccc2c(Nc3ccc(F)cc3F)ncc(C(=O)N3CCOCC3)c12` [Example-7, (1-((2,4-Difluorophenyl)amino)-5-methylisoquinolin-4-yl)(morpholino)methanone], the half-maximal effective concentration (EC50) under setting [1] lay in the range of 10 to 1000 nM.
Take `CCN(CC)C(=O)c1cnc(Nc2cccc(C(F)(F)F)c2C)c2cccc(C)c12` [compound 279, N,N-Diethyl-5-methyl-1-((2-methyl-3-(trifluoromethyl)phenyl)amino) isoquinolin-4-carboxamide]: the 50% effective concentration (EC50) was < 10 nM.
Same read-out and setting: under `CCN(C)C(=O)c1ccc(Nc2cccc(C(F)(F)F)c2F)c2cccc(C)c12` [compound 413, N-Ethyl-4-((2-fluoro-3-(trifluoromethyl)phenyl)amino)-N,8-dimethyl-1-naphthamide] stands < 10 nM.
Take `CCN(C)C(=O)c1cnc(Nc2cccc(C(F)(F)F)c2F)c2cccc(Cl)c12` [compound 334, 5-Chloro-N-ethyl-1-((2-fluoro-3-(trifluoromethyl)phenyl)amino)-N-methylisoquinolin-4-carboxamide]: the EC50 under setting [1] was < 10 nM.
Consider `Cc1cccc2c(Nc3cccc(Cl)c3F)ncc(C(=O)N3CC4CC(C3)O4)c12` [Example-61, 6-Oxa-3-azabicyclo[3.1.1]heptan-3-yl(1-((3-chloro-2-fluorophenyl)amino)-5-methylisoquinolin-4-yl)methanone], for which the concentration for a half-maximal effect (EC50) was < 10 nM.
As for `O=C(c1cnc(Nc2cccc(C(F)(F)F)c2)c2cccc(C3CC3)c12)N1CCOCC1` [Example-118, (5-Cyclopropyl-1-((3-(trifluoromethyl)phenyl)amino)isoquinolin-4-yl)(morpholino)methanone], the EC50 is < 10 nM.
Regarding `O=C(c1cnc(Nc2cccc(F)c2F)c2cccc(C3CC3)c12)N1CCOCC1` [Example-116], the EC50 under setting [1] was < 10 nM.
As for `CN(C)C(=O)c1cnc(Nc2cccc(C(F)(F)F)c2Cl)c2cccc(Cl)c12` [compound 317, 5-Chloro-1-((2-chloro-3-(trifluoromethyl)phenyl)amino)-N,N-di methylisoquinolin-4-carboxamide], the EC50 under setting [1] was < 10 nM.
For the molecule `O=C(c1cnc(Nc2cccc(C(F)(F)F)c2F)c2cccc(C3CC3)c12)N1CCOCC1` [Example-119, (5-Cyclopropyl-1-((2-fluoro-3-(trifluoromethyl)phenyl)amino)isoquinolin-4-yl)(morpholino)methanone], under setting [1], the EC50 was < 10 nM.
For `Cc1cccc2c(Nc3ccc(F)cc3)ncc(C(=O)N3CCOCC3)c12` [Example-5, (1-((4-Fluorophenyl)amino)-5-methylisoquinolin-4-yl)(morpholino)methanone], the EC50 under setting [1] was 10 to 1000 nM.
In the case of `COc1cccc(Nc2ccc(C(=O)N3CCCCC3)c3c(C)cccc23)c1` [Example-161, (4-((3-Methoxyphenyl)amino)-8-methylnaphthalen-1-yl)(piperidin-1-yl)methanone], the EC50 under setting [1] is < 10 nM.
With `Cc1cccc2c(Nc3ccc(Cl)cc3Cl)ncc(C(=O)N3CCOCC3)c12` [Example-90, (1-((2,4-Dichlorophenyl)amino)-5-methylisoquinolin-4-yl)(morpholino)methanone], the EC50 under setting [1] is < 10 nM.
On the same count and under the same terms, the value for `CN(C)C(=O)c1ccc(Nc2cccc(F)c2C(F)(F)F)c2cccc(Cl)c12` [Example-469, 8-Chloro-4-((3-fluoro-2-(trifluoromethyl)phenyl)amino)-N,N-dimethyl-1-naphthamide] was 10 to 1000 nM.
For the molecule `Cc1cccc2c(Nc3cccc(Cl)c3)ncc(C(=O)N3CCCC3)c12` [Example-102, (1-((3-Chlorophenyl)amino)-5-methylisoquinolin-4-yl)(pyrrolidin-1-yl)methanone], the EC50 is 10 to 1000 nM.
Take `Cc1cccc2c(Nc3cccc(CF)c3)ncc(C(=O)N3CCOCC3)c12` [Example-12, (1-(((3-Fluoromethyl)phenyl)amino)-5-methylisoquinolin-4-yl)(morpholino)methanone]: the EC50 lay in the range of 10 to 1000 nM.
As to `Cc1cc(Nc2ncc(C(=O)N3CCCCC3)c3c(C)cccc23)ccc1F` [Example-94, (1-((4-Fluoro-3-methylphenyl)amino)-5-methylisoquinolin-4-yl)(piperidin-1-yl)methanone], the EC50 was < 10 nM.
On to `Cc1cccc2c(Nc3cc(F)ccc3F)ncc(C(=O)N3CCCCC3)c12` [Example-34, (1-((2,5-Difluorophenyl)amino)-5-methylisoquinolin-4-yl)(piperidin-1-yl)methanone], for which the EC50 under setting [1] is < 10 nM.
For the molecule `CCN(CC)C(=O)c1cnc(Nc2cccc(C(F)(F)F)c2F)c2cccc(C)c12` [compound 277, N,N-Diethyl-1-((2-fluoro-3-(trifluoromethyl)phenyl)amino)-5-methyl isoquinolin-4-carboxamide], the EC50 was < 10 nM.
As for `CCc1cccc2c(Nc3cccc(F)c3F)ncc(C(=O)N3CCCCC3)c12` [Example-124, (1-((2,3-Difluorophenyl)amino)-5-ethylisoquinolin-4-yl)(piperidin-1-yl)methanone], the EC50 under setting [1] is < 10 nM.
For the molecule `CCN(CC)C(=O)c1cnc(Nc2cccc(C(F)(F)F)c2C)c2cccc(Cl)c12` [compound 325, 5-Chloro-N-N-diethyl-1-((2-methyl-3-(trifluoromethyl)phenyl)amino) isoquinolin-4-carboxamide], the EC50 is < 10 nM.
For the molecule `CCN(CC)C(=O)c1cnc(Nc2cccc(Cl)c2C)c2cccc(Cl)c12` [compound 322, 5-Chloro-1-((3-chloro-2-methylphenyl)amino)-N,N-diethyl isoquinolin-4-carboxamide], the EC50 is < 10 nM.
As to `Cc1cccc2c(Nc3cccc(F)c3F)ncc(C(=O)N3CCCCC3)c12` [Example-33, (1-((2,3-Difluorophenyl)amino)-5-methylisoquinolin-4-yl)(piperidin-1-yl)methanone], the concentration for a half-maximal effect (EC50) under setting [1] was < 10 nM.
As to `Cc1ccc(Cl)cc1Nc1ncc(C(=O)N2CCOCC2)c2c(C)cccc12` [Example-88, (1-((5-Chloro-2-methylphenyl)amino)-5-methylisoquinolin-4-yl)(morpholino)methanone], the EC50 under setting [1] was < 10 nM.
For `CCN(CC)C(=O)c1cnc(Nc2cccc(C(=O)OC)c2C)c2cccc(Cl)c12` [compound 249, Methyl 2-methyl-3-((5-chloro-4-(diethylcarbamoyl)isoquinolin-1-yl)amino)benzoate], the concentration for a half-maximal effect (EC50) under setting [1] was < 10 nM.
Same read-out and setting: the value for `COC(=O)c1cccc(Nc2ccc(C(=O)N3CCCCC3)c3c(C)cccc23)c1C` [compound 409, Methyl 2-methyl-3-((5-methyl-4-(piperidin-1-carbonyl)naphthalen-1-yl)amino)benzoate] was < 10 nM.
As to `Cc1c(F)cccc1Nc1ncc(C(=O)N2CC3CC3C2)c2c(C)cccc12` (stereo not shown) [Example-77, 3-Azabicyclo[3.1.0]hexan-3-yl(1-((3-fluoro-2-methylphenyl)amino)-5-methylisoquinolin-4-yl)methanone], the EC50 under setting [1] is < 10 nM.
With `Cc1cc(Nc2ncc(C(=O)N3CCOCC3)c3c(C)cccc23)ccc1F` [Example-85, (1-((4-Fluoro-3-methylphenyl)amino)-5-methylisoquinolin-4-yl)(morpholino)methanone], the EC50 under setting [1] was < 10 nM.
`Cc1c(Cl)cccc1Nc1ncc(C(=O)N(C)C(C)C)c2c(Cl)cccc12` [compound 384, 5-Chloro-1-((3-chloro-2-methylphenyl)amino)-N-isopropyl-N-methylisoquinolin-4-carboxamide] showed an EC50 of 10 to 1000 nM.
On to `Cc1c(Cl)cccc1Nc1ncc(C(=O)N2CCOCC2)c2c(C)cccc12` [Example-87, (1-((3-Chloro-2-methylphenyl)amino)-5-methylisoquinolin-4-yl)(morpholino)methanone], for which the EC50 is < 10 nM.
`CC1COCC(C)N1C(=O)c1ccc(Nc2cc(F)cc(F)c2)c2ccccc12` (stereo not shown) [Example-190, (4-((3,5-Difluorophenyl)amino)naphthalen-1-yl)(3,5-dimethylmorpholino)methanone]: under setting [1], the EC50 lay within 10 to 1000 nM.
In turn, `O=C(c1ccc(Nc2ccc(Cl)cc2Cl)c2ccccc12)N1CCOCC1` [Example-197, (4-((2,4-Dichlorophenyl)amino)naphthalen-1-yl)(morpholino)methanone] gave an EC50 of 10 to 1000 nM.
Take `CCN(C)C(=O)c1cnc(Nc2cccc(F)c2Cl)c2cccc(Cl)c12` [compound 336, 5-Chloro-1-((2-chloro-3-fluorophenyl)amino)-N-ethyl-N-methyl isoquinolin-4-carboxamide]: under setting [1], the EC50 was < 10 nM.
